Test results published in patent US12459951B2, “Compounds that interact with RAS superfamily proteins for treatment of cancers, inflammatory diseases, rasopathies, and fibrotic disease” (SHY Therapeutics, LLC, priority 2022, dated 2025).
Like-named read-outs stand apart in the source and are kept apart here.

What was measured:
[1] = tested on: IL6; test: IL-6 Quantification Assay (ELISA), LPS-stimulated RAW 264.7; format: cell-based; set-up: inhibition: dose or concentration left out as unconfirmed; details: Mus musculus, RAW264.7; read-out: IL-6: % inh.
[2] = tested on: MiaPaca-2 (expressing KRAS G12C mutant); test: Proliferation Assay (Cell Viability Assay); format: cell-based; details: Homo sapiens, MIA PaCa-2
How it was run: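 After 2–4 days' exposure at 37 °C, 5% CO2 to a single 10 μM final concentration or a dilution series (IC50), percent proliferation inhibition was derived from CellTiter 96 Aqueous One viability readings. The medium contained 0.3% DMSO and 10% FBS. KRAS G12C MiaPaca-2 cells were plated at 2000–5000/well the day before.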

[3] = tested on: Erk1/2 phosphorylation; test: Erk1/2 Phosphorylation Assay (western blot), Panc-1; format: cell-based, human; details: at 10 μM, * = activation
How it was run: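 Phospho-Erk1/2 (Thr202/Tyr204) was detected by western blot in lysates of Panc-1 cells (KRas G12D). These had 6 h, 37° C exposure to 10 μM compound or a dilution series for IC50, in 0.3% DMSO. Cells were either starved overnight in 0.5% FBS with a 15-min 1.5 ng/ml EGF pulse, or kept unstimulated in 10% FBS.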

[4] = read-out: Proliferation in MiaPaca-2: IC50
[5] = Proliferation assay, MiaPaca-2, read-out: MiaPaca-2 IC50 (nM) Pancreatic

Structure (SMILES) | IC50 [2, 4] [nM] | IC50 [2, 5] [nM] | inhibition [1] [%] | % inh of Erk1/2 phosphorylation in Panc-1 [3]
COCc1csc(Nc2nc(-c3nccn3C)nn3cc(-c4ccn(C(C)C)n4)c(C)c23)n1 [Compound 79, N-(6-(1-Isopropyl-1H-pyrazol-3-yl)-5-methyl-2-(1-methyl-1H-imidazol-2-yl)pyrrolo[2,1-f][1,2,4]triazin-4-yl)-4-(methoxymethyl)thiazol-2-amine] | < 150 | – | 1 to 24 | D* (85-100% activation)
COc1cnc(Nc2nc(-c3nccn3C)nn3cc(-c4ccn(C(C)C)n4)c(C)c23)cn1 [Compound 83, 6-(1-Isopropyl-1H-pyrazol-3-yl)-N-(5-methoxypyrazin-2-yl)-5-methyl-2-(1-methyl-1H-imidazol-2-yl)pyrrolo[2,1-f][1,2,4]triazin-4-amine] | 150 to 500 | – | 25 to 49 | D* (85-100% activation)
COc1ncccc1Nc1nc(-c2nccn2C)nn2cc(-c3ccn(C(C)C)n3)c(C)c12 [Compound 85, 6-(1-Isopropyl-1H-pyrazol-3-yl)-N-(2-methoxypyridin-3-yl)-5-methyl-2-(1-methyl-1H-imidazol-2-yl)pyrrolo[2,1-f][1,2,4]triazin-4-amine] | > 1000 | – | 75 to 100 | C (50-84% inhibition)
COc1nccc(Nc2nc(-c3nccn3C)nn3cc(-c4ccn(C(C)C)n4)c(C)c23)n1 [Compound 86, 6-(1-Isopropyl-1H-pyrazol-3-yl)-N-(2-methoxypyrimidin-4-yl)-5-methyl-2-(1-methyl-1H-imidazol-2-yl)pyrrolo[2,1-f][1,2,4]triazin-4-amine] | 150 to 500 | – | 75 to 100 | D* (85-100% activation)
COc1ncncc1Nc1nc(-c2nccn2C)nn2cc(-c3ccn(C(C)C)n3)c(C)c12 [Compound 88, 6-(1-Isopropyl-1H-pyrazol-3-yl)-N-(4-methoxypyrimidin-5-yl)-5-methyl-2-(1-methyl-1H-imidazol-2-yl)pyrrolo[2,1-f][1,2,4]triazin-4-amine] | > 1000 | – | 1 to 24 | 0 (0% inhibition)
COc1cccnc1Nc1nc(-c2nccn2C)nn2cc(-c3ccn(C(C)C)n3)c(C)c12 [Compound 89, 6-(1-Isopropyl-1H-pyrazol-3-yl)-N-(3-methoxypyridin-2-yl)-5-methyl-2-(1-methyl-1H-imidazol-2-yl)pyrrolo[2,1-f][1,2,4]triazin-4-amine] | < 150 | – | 75 to 100 | D* (85-100% activation)
Cc1c(-c2ccn(C(C)C)n2)cn2nc(-c3nccn3C)nc(Nc3ncc(C4CC4)o3)c12 [Compound 90, 5-Cyclopropyl-N-(6-(1-isopropyl-1H-pyrazol-3-yl)-5-methyl-2-(1-methyl-1H-imidazol-2-yl)pyrrolo[2,1-f][1,2,4]triazin-4-yl)oxazol-2-amine] | > 1000 | – | 0 | D* (85-100% activation)
COCCO[C@H]1C[C@H](Nc2nc(-c3nccn3C)nn3cc(-c4ccn(C(C)C)n4)c(C)c23)C1 [Compound 92, 6-(1-Isopropyl-1H-pyrazol-3-yl)-N-((1r,3r)-3-(2-methoxyethoxy)cyclobutyl)-5-methyl-2-(1-methyl-1H-imidazol-2-yl)pyrrolo[2,1-f][1,2,4]triazin-4-amine] | > 1000 | – | 50 to 74 | A* (1-25% activation)

More lines, main results first:

IC50 [2, 4] [nM] | IC50 [2, 5] [nM] | Structure (SMILES) | inhibition [1] [%] | % inh of Erk1/2 phosphorylation in Panc-1 [3]
> 1000 | – | COc1ncc(Nc2nc(-c3nccn3C)nn3cc(-c4ccn(C(C)C)n4)c(C)c23)cn1 [Compound 80, 6-(1-Isopropyl-1H-pyrazol-3-yl)-N-(2-methoxypyrimidin-5-yl)-5-methyl-2-(1-methyl-1H-imidazol-2-yl)pyrrolo[2,1-f][1,2,4]triazin-4-amine] | 0 | D* (85-100% activation)
150 to 500 | – | Cc1c(-c2ccn(C(C)C)n2)cn2nc(-c3nccn3C)nc(Nc3nnc(C4CC4)[nH]3)c12 [Compound 81, N-(5-Cyclopropyl-4H-1,2,4-triazol-3-yl)-6-(1-isopropyl-1H-pyrazol-3-yl)-5-methyl-2-(1-methyl-1H-imidazol-2-yl)pyrrolo[2,1-f][1,2,4]triazin-4-amine] | 75 to 100 | 0 (0% inhibition)
< 150 | – | COCc1noc(Nc2nc(-c3nccn3C)nn3cc(-c4ccn(C(C)C)n4)c(C)c23)n1 [Compound 82, N-(6-(1-Isopropyl-1H-pyrazol-3-yl)-5-methyl-2-(1-methyl-1H-imidazol-2-yl)pyrrolo[2,1-f][1,2,4]triazin-4-yl)-3-(methoxymethyl)-1,2,4-oxadiazol-5-amine] | 75 to 100 | A* (1-25% activation)
< 150 | 1 to 10 | Cc1c(-c2ccn(C(C)C)n2)cn2nc(-c3nccn3C)nc(Nc3ccn(C4CC4)n3)c12 [Compound 84, N-(1-Cyclopropyl-1H-pyrazol-3-yl)-6-(1-isopropyl-1H-pyrazol-3-yl)-5-methyl-2-(1-methyl-1H-imidazol-2-yl)pyrrolo[2,1-f][1,2,4]triazin-4-amine] | 25 to 49 | D* (85-100% activation)
> 1000 | – | COc1cc(Nc2nc(-c3nccn3C)nn3cc(-c4ccn(C(C)C)n4)c(C)c23)ccn1 [Compound 87, 6-(1-Isopropyl-1H-pyrazol-3-yl)-N-(2-methoxypyridin-4-yl)-5-methyl-2-(1-methyl-1H-imidazol-2-yl)pyrrolo[2,1-f][1,2,4]triazin-4-amine] | 0 | C* (46-84% activation)
< 150 | 10 to 50 | Cc1c(-c2ccn(C(C)C)n2)cn2nc(-c3nccn3C)nc(Nc3cc4n(n3)CCO4)c12 [Compound 91, N-(6-(1-Isopropyl-1H-pyrazol-3-yl)-5-methyl-2-(1-methyl-1H-imidazol-2-yl)pyrrolo[2,1-f][1,2,4]triazin-4-yl)-2,3-dihydropyrazolo[5,1-b]oxazol-6-amine] | 1 to 24 | D* (85-100% activation)
